Measured values taken from article PMC8232621, “Antimicrobial Activity of a Library of Thioxanthones and Their Potential as Efflux Pump Inhibitors” (Pharmaceuticals, 2021).
Like-named read-outs stand apart in the source and are kept apart here.

Experiments:
E. faecalis ATCC 29212 = assay: Antibacterial activity, broth microdilution MIC; type: cell-based; settings: Enterococcus faecalis
Text: (§1) The referred library of thioxanthones was initially tested for their antimicrobial activity against six bacterial strains: the Gram-negative Escherichia coli ATCC 25922, Pseudomonas aeruginosa ATCC 27853 and Salmonella enterica serovar Typhimurium SL1344 (SE03), with the acrA gene deleted, and the Gram-positive Staphylococcus aureus ATCC 29213, Enterococcus faecalis ATCC 29212 and the methicillin and ofloxacin-resistant clinical isolate S. aureus 272123. For the synergy assay, two clinically relevant isolates were used: the extended-spectrum β-lactamase (ESBL)-producing E. coli SA/2 [23] and the vancomycin-resistant E. faecalis (VRE) B3/101 [23]. The antibiotics used were cefotaxime (CTX) and vancomycin (VAN), respectively.
(§2) The minimum inhibitory concentration (MIC) for each compound was determined by broth microdilution method in a 96-well plate according to the Clinical and Laboratory Standard Institute (CLSI) guidelines. The medium used was MHB II. The concentrations tested ranged from 100 µM to 0.195 µM and were prepared from a stock solution of 10 mM in DMSO, for S. aureus 272123 and SE03; for the other strains, the concentrations tested ranged from 64 µg/mL to 4 µg/mL and were prepared from a stock solution of 10 mg/mL in DMSO. DMSO was used in subinhibitory concentrations (1% v/v). The MIC was determined by visual inspection.

S. aureus 272123 [1] = assay: Antibacterial activity, broth microdilution MIC; type: cell-based; settings: Staphylococcus aureus, 272123, read-out: Minimum Inhibitory Concentration (MIC)
Text: as §1, §2

S. aureus ATCC 29213 = assay: Antibacterial activity, broth microdilution MIC; type: cell-based; settings: Staphylococcus aureus
Text: as §1, §2

S. aureus 272123 [2] = assay: Inhibition of biofilm formation (crystal violet); type: cell-based, Staphylococcus aureus; settings: read-out: Biofilm Inhibition (%) ± SD
Protocol: Efflux mechanisms are one of the factors that can lead to biofilm-mediated resistance, along with slow growth and reduced penetration due to production of extracellular polysaccharides. […] Additionally, they can also modulate QS, through an influence in the transport of QS signal molecules. Thioxanthones 2–18 were tested for their potential for inhibiting biofilm formation by S. aureus ATCC 29213 and the multi-resistant S. aureus 272123. The biofilm inhibition, presented in percentage (%), was calculated based on the mean of absorbance units. Reserpine, which has previously been described as both an efflux pump inhibitor and an inhibitor of biofilm formation in Gram-positive bacteria was used as control in both strains.
The thioxanthone derivatives were tested for their ability to decrease the formation of biofilm. The bacterial strains used were the Gram-positive S. aureus […] and S. aureus 272123. The detection of the biofilm formation was carried out using the dye crystal violet (CV; 0.1% v/v). The initial inoculum was incubated in TSB overnight, and then diluted to an OD600 of 0.1. […] This meant that compound 12 was added at 50 µM, while the rest of the compounds were added at the concentration of 100 µM. The final volume in each well was 200 µL. Reserpine was used as a positive control, as it was the same compound used in the efflux pump inhibition assay and it has shown activity in the inhibition of biofilm formation in S. aureus strains. The plates were incubated at 30 °C for 48 h, with gentle stirring (100 rpm). After this incubation period, the TSB medium was discarded, and the plates were washed with tap water to remove unattached cells. Afterwards, 200 µL of a 0.1% v/v CV solution were added to the wells and incubated for 15 min at room temperature. Then, the CV solution was removed from the wells, and the plates were washed again with tap water, and 200 µL of a 70% ethanol solution was added to the wells. The biofilm formation was determined by measuring the OD600 using a Multiscan EX ELISA plate reader (Thermo Labsystems, Cheshire, WA, USA). The anti-biofilm effect of the compounds was expressed in the percentage (%) of decrease of biofilm formation.

S. marcescens = assay: Quorum sensing inhibition assay (pigment production); type: cell-based, Serratia marcescens AS-1; settings: Serratia marcescens, read-out: Quorum Sensing Inhibition (mm) ± SD
Protocol: (§3) Concerning the QS inhibition assay, the sensor strain Chromobacterium violaceum CV026 and the AHL producer strain Sphingomonas paucimobilis Ezf 10-17 (EZF) were inoculated as parallel lines, and the AHL producers Chromobacterium violaceum wild-type 85 (wt85) and Serratia marcescens AS-1 were inoculated as a single line. The interaction between the strains and compounds 2–18 was evaluated as the reduction of pigment production, in millimeters (mm) (Table 5) with promethazine (PMZ) as a positive control.
(§4) The QS inhibitory effect of the compounds was examined on the EZF and the sensor CV026 strains, on the wt85 strain, and on S. marcescens. The method used was the parallel inoculation method, where pair combinations of the used sensor strain CV026 and the N-acyl-homoserine lactone (AHL) producing strain EZF were inoculated directly onto the LB*-A agar surface in parallel, at an approximate distance of 5 mm from each other. S. marcescens AS-1 and wt85 were inoculated as a single line. Filter paper disks (7 mm in diameter) were placed on the center of the inoculated line(s) and impregnated with 8 µL of a solution of 10 mM of the compounds. […] The agar plates were incubated at room temperature (20 °C) for 24−48 h. The QS inhibition was accessed visually, through the inhibition of pigment production. The discolored, but intact, bacterial colonies were measured with a ruler.

wt85 = assay: as above; type: cell-based, Chromobacterium violaceum wild-type 85; settings: Chromobacterium violaceum, read-out: Quorum Sensing Inhibition (mm) ± SD
Protocol: as §3, §4

[3] = ATCC29212, read-out: Minimum Inhibitory Concentration (MIC)
[4] = ATCC29212, E. faecalis ATCC 29212, read-out: Minimum Inhibitory Concentration (MIC)
[5] = ATCC29213, read-out: Minimum Inhibitory Concentration (MIC)
[6] = ATCC29213, S. aureus ATCC 29213, read-out: Minimum Inhibitory Concentration (MIC)
[7] = Staphylococcus aureus, S. aureus 272123, compounds 100 µM (compound 12 at 50 µM), 48 h

Row | Structure (SMILES) | MIC (E. faecalis ATCC 29212; [3]) | MIC (E. faecalis ATCC 29212; [4]) | MIC (S. aureus 272123 [1]) | MIC (S. aureus ATCC 29213; [5]) | MIC (S. aureus ATCC 29213; [6]) | inhibition at 100 µM (S. aureus 272123 [2]; [7]) | zone of inhibition at 10000 µM (S. marcescens) | zone of inhibition at 10000 µM (wt85) | inhibition at 100 µM (S. aureus 272123 [2]; Staphylococcus aureus, 272123, 48 h)
1 | CCCOc1ccc(NCCN(CC)CC)c2c(=O)c3ccccc3sc12 [Compound 2] | 83 µM | 32 µg/mL | > 100 µM | 83 µM | 32 µg/mL | 81.1 ± 1.18% | 0 mm | 0 mm | 
2 | CCCOc1ccc(N2CCCCC2)c2c(=O)c3ccccc3sc12 [Compound 3] |  | > 100 µM | > 100 µM |  | > 100 µM |  | 0 mm | 0 mm | 93.49 ± 0.33%
3 | CCCOc1ccc(Nc2nc(C)cc(C)n2)c2c(=O)c3ccccc3sc12 [Compound 8, 1-[(4,6-Dimethylpyrimidin-2-yl)amino]-4-propoxy-9H-thioxanthen-9-one] |  | > 100 µM | > 100 µM |  | > 100 µM | 0% | 0 mm | 0 mm | 
4 | CCCOc1ccc(N2CCNC(=O)C2)c2c(=O)c3ccccc3sc12 [Compound 9, 4-(9-Oxo-4-propoxy-9H-thioxanthen-1-yl)piperazin-2-one] |  | > 100 µM | > 100 µM |  | > 100 µM | 31.5 ± 8.99% | 0 mm | 0 mm | 
5 | CCCOc1ccc(NCCO)c2c(=O)c3ccccc3sc12 [Compound 10, 1-[(2-Hydroxyethyl)amino]-4-propoxy-9H-thioxanthen-9-one] |  | > 100 µM | > 100 µM |  | > 100 µM | 55.2 ± 4.2% | 0 mm | 0 mm | 
6 | CCCOc1ccc(NCCN2CCOCC2)c2c(=O)c3ccccc3sc12 [Compound 11, 1-[(2-Morpholinoethyl)amino]-4-propoxy-9H-thioxanthen-9-one] |  | > 100 µM | > 100 µM |  | > 100 µM | 20.2 ± 4% | 31 ± 0.8 mm | 0 mm | 
7 | CCCOc1ccc(NS(=O)(=O)c2ccc(C(=O)O)cc2)c2c(=O)c3ccccc3sc12 [Compound 12, 4-[N-(9-Oxo-4-propoxy-9H-thioxanthen-1-yl)sulfamoyl]benzoic acid] | 34 µM | 16 µg/mL | > 100 µM | 34 µM | 16 µg/mL |  | 0 mm | 0 mm | 
8 | CCCOc1ccc(NS(=O)(=O)c2ccc(N)cc2)c2c(=O)c3ccccc3sc12 [Compound 13, 4-Amino-N-(9-oxo-4-propoxy-9H-thioxanthen-1-yl)benzenesulfonamide] |  | > 100 µM | > 100 µM |  | > 100 µM | 72 ± 6.66% | 0 mm | 0 mm | 
9 | CCCOc1ccc(Br)c2c(=O)c3ccccc3sc12 [Compound 14, 1-Bromo-4-propoxy-9H-thioxanthen-9-one] |  | > 100 µM | > 100 µM |  | > 100 µM | 2.46 ± 0.72% | 0 mm | 0 mm | 
10 | CCCOc1ccc2ncnc3c2c1Sc1ccccc1-3 [Compound 15] |  | > 100 µM | > 100 µM |  | > 100 µM | 76 ± 2.06% | 32 ± 0.5 mm | 0 mm | 
11 | CCCOc1ccc2nc(N)nc3c2c1Sc1ccccc1-3 [Compound 16] |  | > 100 µM | > 100 µM |  | > 100 µM | 73.6 ± 1.8% | 0 mm | 0 mm | 
12 | CCCOc1ccc2nc(NCc3ccccc3Cl)nc3c2c1Sc1ccccc1-3 [Compound 17] |  | > 100 µM | > 100 µM |  | > 100 µM | 6.32 ± 4.32% | 0 mm | 0 mm | 
13 | CCCOc1ccc2c3c(n/c(=N\c4ccccc4C)n2-c2ccccc2C)-c2ccccc2Sc13 [Compound 18] |  | > 100 µM | > 100 µM |  | > 100 µM | 1.62 ± 2.43% | 0 mm | 0 mm | 
